Legend:
[1] = system: AD patients; details: galantamine therapy; cited from earlier work
[2] = system: Caucasian patients diagnosed with Alzheimer's Disease; test: Clinical association of CDK5 haplotype copy number with galantamine response (ΔADAS-cog responder vs non-responder, logistic regression); assay type: in vivo, human
Method: Following 3, 5, 6 or 12 months of treatment in the GAL-INT2, GAL-USA 10, GAL-INT-1 and SAB-USA-25 trials, respectively, the severity of symptoms in patients were evaluated using the cognitive subscale of the Alzheimer's Disease Assessment Scale (ADAS-cog) (Rosen et al., supra; Rockwood et al., supra; Tariot et al., supra; Wilcock et al., supra). The ADAS-cog measures cognitive function, including spoken language ability, comprehension of spoken language, recall of test instructions, word-finding difficulty in spontaneous speech, following commands, naming objects and fingers, constructional praxis, ideational praxis, orientation, word-recall task and word-recognition task (Alzheimer's Insights Online, supra).
For the clinical association study described in Example 2 below, 174 patients were selected and used to populate two groups in a tailed sampling strategy, intended to enrich alleles correlating with drug response in the population. […] Patients were assigned to responder and non-responder groups based on having a change in ADAS-cog score (ΔADAS-cog) that met a cut-off value that was chosen based on the differences in treatment times in the four clinical trials described above. The ΔADAS-cog cut-off values and treatment times used for each responder and non-responder group from each of the four clinical trials are shown in Table 6 below.
The statistical analyses compared ΔADAS-cog in patients with one copy vs. zero copies, two copies vs. zero copies, and two copies vs. one copy (within a patient's genome) of a particular allele, using a logistic regression analysis on two-degrees of freedom to associate clinical response with a particular haplotype. The following covariates were also included: age, gender, history, smoking, ADAS-cog baseline, dose (BID), body mass index, and CYP2D6. The logistic regression included assessment of associations between the haplotypes and the binary outcome of clinical response.
For the results obtained on the analyses, adjustments were made for multiple comparisons, using a permutation test (MULTIVARIATE PERMUTATION TESTS: WITH APPLICATIONS IN BIOSTATISTICS, Pesarin, John Wiley and Sons, New York, 2001). In this test, a sub-haplotype's data for each observation were kept constant, while all the remaining variables (outcome and covariates) were randomly permuted so that covariates always stayed with the same outcome. The permutation model was fitted for each of the several haplotypes, and the lowest p-value was kept. In total, 1000 permutations were done.

[3] = system: AD patients; details: presence of the ApoE4 allele; cited from earlier work

Structure (SMILES)	most common side effects [1]	Subject Count for Haplotype with Highest Level Response ([2]; haplotype (1), 0 copies, of 41 subjects)	Subject Count for Haplotype with Highest Level Response ([2]; haplotype (1), 1 copy, of 88 subjects)	Subject Count for Haplotype with Highest Level Response ([2]; haplotype (1), 2 copies, of 45 subjects)	Subject Count for Haplotype with Highest Level Response ([2]; haplotype (2), 0 copies, of 41 subjects)	Subject Count for Haplotype with Highest Level Response ([2]; haplotype (2), 1 copy, of 88 subjects)	Subject Count for Haplotype with Highest Level Response ([2]; haplotype (2), 2 copies, of 45 subjects)	response to treatment in presence of ApoE4 polymorphism [3]
COc1ccc2c3c1O[C@H]1C[C@@H](O)C=C[C@@]31CCN(C)C2 [galantamine]	nausea, vomiting, diarrhea, dizziness and anorexia	26 (0)	46 (1)	13 (2)	26 (0)	46 (1)	13 (2)	–
Nc1c2c(nc3ccccc13)CCCC2 [tacrine]	–	–	–	–	–	–	–	reduced response to treatment
